Experimental findings from patent publication EP0723539B1, “TRICYCLIC SULFONAMIDE COMPOUNDS USEFUL FOR INHIBITION OF G-PROTEIN FUNCTION AND FOR TREATMENT OF PROLIFERATIVE DISEASES” (SCHERING CORPORATION, priority 1993, dated 1995) are described below.

The target of assay [1] is T1, farnesyl protein transferase (FPT) (Rattus norvegicus, UniProt Q02293+Q04631).
T1 construct: partially purified rat brain farnesyl protein transferase (FPT); from tissue; host or cells: rat brain
Put plainly: In vitro enzyme assay: inhibition of farnesyl protein transferase (transfer of [3H]farnesyl to Ras-CVLS). The class given is biochemical. An excerpt: (§1) Both farnesyl protein transferase (FPT) and geranylgeranyl protein transferase (GGPT) I were partially purified from rat brain by ammonium sulfate fractionation followed by Q-Sepharose (Pharmacia, Inc.) anion exchange chromatography essentially as described by Yokoyama et al (Yokoyama, K., et al., (1991), A protein geranylgeranyltransferase from bovine brain: Implications for protein prenylation specificity, Proc. Natl. Acad. Sci USA 88: 5302-5306, the disclosure of which is incorporated herein by reference thereto). Two forms of val^12-Ha-Ras protein were prepared as substrates for these enzymes, differing in their carboxy terminal sequence. One form terminated in cysteine-valine-leucine-serine (Ras-CVLS) the other in cystein-valine-leucine-leucine (Ras-CVLL). […]
Several methods for measuring farnesyl protein transferase activity have been described (Reiss et al 1990, Cell 62: 81; Schaber et al 1990, J. Biol. Chem. 265: 14701; Manne et al 1990, PNAS 87: 7541; and Barbacid & Manne 1993, U.S. Patent No. 5,185,248). […] Filter mats were washed once with 6% TCA, 2% SDS and radioactivity was measured in a Wallac 1204 Betaplate BS liquid scintillation counter. Percent inhibition was calculated relative to the DMSO vehicle control.

In another assay the test system is Ras-CVLS processing. Nature of the assay: Cell-based assay: Ras processing in Ras-transfected COS cells (immunoblot). Also noted: species or system monkey. To be noted: read-out: INHIBITION OF Ras PROCESSING IC50. The procedure:
COS monkey kidney cells were transfected by electroporation with the plasmid pSV-SPORT (Gibco/BRL) containing a cDNA insert encoding either Ras-CVLS or Ras-CVLL, leading to transient overexpression of a Ras substrate for either farnesyl protein transferase or geranylgeranyl protein transferase I, respectively (see above).
Following electroporation, cells were plated into 6-well tissue culture dishes containing 1.5 ml of Dulbecco's-modified Eagle's media (GIBCO, Inc.) supplemented with 10% fetal calf serum and the appropriate farnesyl protein transferase inhibitors. After 24 hours, media was removed and fresh media containing the appropriate drugs was re-added. […]
Membranes were blocked by incubation overnight at 4°C in PBS containing 2.5% dried milk and 0.5% Tween-20 and then incubated with a Ras-specific monoclonal antibody, Y13-259 (Furth, M.E., et al., (1982), Monoclonal antibodies to the p21 products of the transforming gene of Harvey murine sarcome virus and of the cellular ras gene family, J. Virol. 43: 294-304), in PBS containing 1% fetal calf serum for one hour at room temperature. […] The presence of processed and unprocessed Ras-CVLS or Ras-CVLL was detected using a colorimetric peroxidase reagent (4-chloro-1-naphthol) as described by the manufacturer (Bio-Rad).
(Immunoblotting shows a protein as a band on a membrane.)

Assay [2] deals with T24-BAG4 human bladder carcinoma cells expressing an activated H-ras gene. Put plainly: Cell Mat assay: inhibition of tumor cell growth. The class given is cell-based. The procedure: (§2) Normal human HEPM fibroblasts were planted in 3.5 cm dishes at a density of 5 x 10^4 cells/dish in 2 ml growth medium, and incubated for 3-5d to achieve confluence. Medium was aspirated from each dish and the indicator tumor cells, T24-BAG4 human bladder carcinoma cells expressing an activated H-ras gene, were planted on top of the fibroblast monolayer at a density of 2 x 10^3cells/dish in 2 ml growth medium, and allowed to attach overnight. Compound-induced colony inhibition was assayed by addition of serial dilutions of compound directly to the growth medium 24 h after tumor cell planting, and incubating cells for an additional 14 d to allow colony formation. Assays were terminated by rinsing monolayers twice with phosphate-buffered saline (PBS), fixing the monolayers with a 1% glutaraldehyde solution in PBS, then visualizing tumor cells by staining with X-Gal (Price, J., et al., Lineage analysis in the vertebrate nervous system by retrovirus-mediated gene transfer, Proc. Natl. Acad. Sci.84, 156-160(1987)). […] The therapeutic index of the compound was quantitatively expressed as the ratio of mIC50/tIC50, with values greater than one indicative of tumor target specificity.

Assay [3] deals with Normal human HEPM fibroblasts. Nature of the assay: Cell Mat assay: inhibition of normal cell growth (cell mat). The class given is cell-based. The settings on record: Fibroblast, normal cell monolayer. The procedure:
as §2

Assay [4] deals with T2, geranylgeranyl protein transferase (GGPT) I (Rattus norvegicus, UniProt P53610+Q04631).
T2 construct: geranylgeranyl protein transferase (GGPT) I were partially purified from rat brain; from tissue; host or cells: rat brain
Nature of the assay: In vitro enzyme assay: inhibition of geranylgeranyl protein transferase I (Ras-CVLL as acceptor). The class given is biochemical. The settings on record: Ras-CVLL as isoprenoid acceptor, read-out: inhibits GGPT.
Text: as §1, with “(Ras-CVLL). Ras-CVLS is a substrate for the famesyl protein transferase while Ras-CVLL is a substrate for geranylgeranyl protein transferase I. The cDNAs encoding these proteins were constructed so that the proteins contain an amino-terminal extension of 6 histidine residues. Both proteins were expressed in Escherichia coli and purified using metal chelate affinity chromatography. The radiolabelled isoprenyl pyrophosphate substrates, [3H]farnesyl pyrophosphate and [^3H]geranylgeranyl pyrophosphate, were purchased from DuPont/New England Nuclear.” for “(Ras-CVLL).”

A word on the IC50: it is the point on the concentration scale where inhibition reaches its midpoint. On to `C=CS(=O)(=O)N1CCC(=C2c3ccc(Cl)cc3CCc3cccnc32)CC1` [Compound 2.9], for which, in assay [1] (partially purified rat brain FPT, Ras-CVLS farnesylation), the “FPT IC50” value was in the range of 0.01 to 10 µM. The IC50 was 0.01 to 10 µM with Ras-CVLS processing; 6.3 µM in assay [2] (Homo sapiens, Ras-transformed tumor cells); 25 µM in assay [3].

With `O=S(=O)(Cc1ccccc1)N1CCC(=C2c3ccc(Cl)cc3CCc3cccnc32)CC1` [Compound 2.12], the “selective for FPT inhibition” value in assay [1] (FPT versus GGPT) is “at least 32 fold”. Also, the inhibition at 42 µM in assay [4] came out at 14%. In addition, the “antiproliferative activity against Ras-transformed cells (in words)” value in assay [2] was “only weak antiproliferative activity”.
